Columns and labels:
[1] = tested on: STING, TBK1, IRF3, RELA, IRF7; test: Western blot of key signaling proteins involved in STING signaling; assay type: cell-based, human
Protocol: 0.5 million cells were lysed for 30 minutes on ice in 50 μl RIPA buffer (50 mM Tris HCl, 150 mM NaCl, 0.1% SDS, 0.5% DOC, 1% NP-40) with Protease inhibitor (Roche #1187358001). To evaluate, phospho-proteins 50 mM NaF and 1 mM sodium orthovanadate were added to the lysis buffer. Protein lysates were cleared by centrifugation at 12,000 g for 10 to 12 minutes at 4° C. 10 μl of 6× Laemmli buffer (fisher scientific #J61337) was added to 50 μl protein lysates and samples were boiled at 95° C. for 15 minutes. Protein samples were resolved on 4%-20% Biorad precast SDS-PAGE gels (#5671125) and transferred onto PVDF membranes (BioRad #1704157). Membranes were blocked in 5% non-fat dry milk in PBS 0.1% tween or in TBS 5% BSA 0.1% Tween to detect phosphorylated proteins. Primary antibodies were used at 1:1000:phospho-STING (clone-D7C3S), STING (clone-D2P2F), serine 172 phospho-TBK1 (clone-D52C2), TBK1 (clone-D11B4), serine 396 phospho IRF3 (clone-D6O1M), IRF3 (clone-D83B9), RELA (clone-C22B4), IRF7 (clone-12G9A36), cGAS (clone-D1 D3G), Actin (clone-C4), Sendai viral proteins (Biozol #MBL-PD029). Secondary anti-rabbit or anti-mouse antibody were used at 1:10,000 (santa cruz #sc-2357, #sc-516102). ECL signal (Biorad #1705061 and #1705062) was recorded on a ChemiDoc Touch Biorad Imager. Data was analyzed and quantified with Image Lab software (Biorad). In figures, dotted lines indicate reordering of lanes from a single original membrane for visualization purpose.

cGAS = test: cGAMP quantification by ELISA in CD4+ T cells; assay type: cell-based, human; conditions: CD4+ T cells expressing RELA K5R or IRF3, FIG. 5B
Protocol: For cGAS stimulation, 2 μg of control GFP plasmid DNA (provided in the kit) was nucelofected in 2 million T cells 72 hours post TCR stimulation (Lonza #VPA-1002) using the programme T020 (Lonza #Nucleofector 2b). Cells were harvested at 4 hours and 24 hours after nucleofection for analysis.
Cell pellets were stored at −80° C. until extraction. Frozen pellets were fixed in 80% cold methanol and subjected to 5 freeze-thaw cycles in liquid nitrogen. Samples were then centrifuged at 16,000 g for 20 minutes at 4° C. The supernatants were further subjected to drying in Savant DNA Speed Vac DNA 110 at 65° C. for 2 hours. The pellets were resuspended in 100 μl RNase- and DNase-free water and cGAMP was quantified by ELISA as per manufacturers protocol (Interchim #501700). cGAMP quantity was normalized to cell numbers and represented as pg/million cells.

Molecule: RELA K5R: RELA mutant converting five lysine residues (K122, K123, K310, K314, K315) to arginine, expressed from lentivector
- endogenous RELA expression ([1]; overexpression in CD4+ T cells and MDDC, FIG. 2C): no impact
- cellular cGAMP (cGAS): no significant increase

B1: IRF3: interferon Regulatory Factor 3, over-expressed from lentivector (protein, UniProt Q14653 1-427, looked up)
Interferon regulatory factor 3: MGTPKPRILPWLVSQLDLGQLEGVAWVNKSRTRFRIPWKHGLRQDAQQEDFGIFQAWAEATGAYVPGRDKPDLPTWKRNFRSALNRKEGLRLAEDRSKDPHDPHKIYEFVNSGVGDFSQPDTSPDTNGGGSTSDTQEDILDELLGNMVLAPLPDPGPPSLAVAPEPCPQPLRSPSLDNPTPFPNLGPSENPLKRLLVPGEEWEFEVTAFYRGRQVFQQTISCPEGLRLVGSEVGDRTLPGWPVTLPDPGMSLTDRGVMSYVRHVLSCLGGGLALWRAGQWLWAQRLGHCHTYWAVSEELLPNSGHGPDGEVPKDKEGGVFDLGPFIVDLITFTEGSGRSPRYALWFCVGESWPQDQPWTKRLVMVKVVPTCLRALVEMARVGGASSLENTVDLHISNSHPLSLTSDQYKAYLQDLVEGMDFQGPGES
- phospho-IRF3 levels in response to cGAMP ([1]; IRF3 over-expression, equivalent in CD4+ T cells and MDDC, FIG. 3C): massive increase
- cellular cGAMP (cGAS): no significant increase
